In PMC5923123, “In Vitro and In Vivo Efficacy of a Novel and Long-Acting Fungicidal Azole, PC1244, on Aspergillus fumigatus Infection” (Antimicrobial Agents and Chemotherapy, 2018):
Converted amounts (≈) assume the structure as drawn. “And” between values parts separate entries of the source, which are not always exact repeats. Equal values may be shown once. Read-outs that look alike come from different tables or passages of the source.

Assays:
[1] = system: A. fumigatus (ATCC 13073 [strain NIH 5233]); assay: MIC against the strain used in vivo; format: cell-based; settings: Aspergillus fumigatus, ATCC13073
[2] = system: ergosterol production in A. fumigatus (NCPF2010); assay: A. fumigatus cell-based ergosterol assay; settings: for IC50: Aspergillus fumigatus
Experimental: CYP51 enzyme-inhibitory activity was also measured in a cell-based assay, as described previously ([28]). In this plate-based ergosterol quantification experiment, oxidation of ergosterol by cholesterol oxidase was determined by observing the conversion of the weakly fluorescent resazurin to the highly fluorescent resorufin and was normalized using crystal violet staining (indicating cell number).
After incubation for 24 h at 35°C, the medium was removed from all wells and replaced with reaction buffer (catalog number A12216; Amplex red cholesterol assay kit; Thermo Fisher) and Amplex red solution. The plates were incubated for 30 min at 37°C with protection from light, after which the fluorescence was quantified using a spectrophotometer. The medium was removed from all wells and replaced with crystal violet solution (1%, vol/vol), and the plates were incubated at room temperature on a shaker for 30 min. The plates were washed three times with phosphate-buffered saline (PBS), and sodium dodecyl sulfate solution (0.1%, vol/vol) was added across the plate to lyse the cells. After incubation at room temperature for 1 h, the absorbance (OD) at 590 nm was measured using a spectrophotometer.

A. fumigatus AF72 = assay: EUCAST broth microdilution growth inhibition (OD 530 nm, 384-well); format: cell-based; settings: Aspergillus fumigatus, strain AF72 (ITC-resistant), 48 h
Experimental: (§1) The antifungal activities of the test compounds against A. fumigatus strains (itraconazole [ITC]-susceptible strains NCPF2010, AF294, and AF293; ITC-resistant strains AF72 and AF91) were calculated from growth curves generated by spectrophotometric analysis and compared to the activities against positive and negative controls.

A. fumigatus AF293 = assay: as above; format: cell-based; settings: Aspergillus fumigatus, strain AF293 (ITC-susceptible), 48 h
Experimental: as §1

A. fumigatus AF91 = assay: as above; format: cell-based; settings: Aspergillus fumigatus, strain AF91 (ITC-resistant), 48 h
Experimental: as §1

A. fumigatus AF294 = assay: as above; format: cell-based; settings: Aspergillus fumigatus, strain AF294 (ITC-susceptible), 48 h
Experimental: as §1

[3] = system: Aspergillus carbonarius (ATCC 8740); assay: CLSI MIC; format: cell-based
A. fumigatus isolates = system: A. fumigatus isolates; design: method as in PMID 12202554; settings: MFC = lowest dilution yielding less than 3 colonies; cited from earlier work
[4] = system: Candida glabrata (ATCC 36583, R363); assay: CLSI MIC; format: cell-based; settings: Nakaseomyces glabratus
[5] = system: Candida krusei (ATCC 6258); assay: CLSI MIC; format: cell-based; settings: Pichia kudriavzevii, ATCC6258
[6] = system: Candida albicans AR (20183.073, 20186.025); assay: CLSI MIC; format: cell-based
[7] = system: Aspergillus niger (ATCC 1015); assay: EUCAST MIC; format: cell-based
A. fumigatus CYP51A = A. fumigatus CYP51A (Aspergillus fumigatus, UniProt Q4WNT5); assay: CYP51 reconstitution assay (sterol 14α-demethylase inhibition)
Sequence of A. fumigatus CYP51A (Q4WNT5 whole entry): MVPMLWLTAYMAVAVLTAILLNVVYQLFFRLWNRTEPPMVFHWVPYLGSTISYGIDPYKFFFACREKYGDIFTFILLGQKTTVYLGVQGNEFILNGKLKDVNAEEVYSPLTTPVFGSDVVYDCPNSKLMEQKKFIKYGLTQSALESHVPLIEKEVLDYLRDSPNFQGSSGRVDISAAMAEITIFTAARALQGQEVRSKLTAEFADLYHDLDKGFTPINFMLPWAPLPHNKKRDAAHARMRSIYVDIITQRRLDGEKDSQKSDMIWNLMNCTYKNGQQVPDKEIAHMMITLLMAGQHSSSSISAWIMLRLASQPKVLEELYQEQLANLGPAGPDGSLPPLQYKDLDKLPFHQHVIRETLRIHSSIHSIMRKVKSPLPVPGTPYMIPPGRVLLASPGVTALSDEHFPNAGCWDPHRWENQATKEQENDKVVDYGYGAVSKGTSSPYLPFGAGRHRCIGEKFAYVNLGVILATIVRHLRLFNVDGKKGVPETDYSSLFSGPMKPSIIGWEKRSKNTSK
Experimental: (§2) The test agent was added to a mixture of 0.5 μM CYP51, 1 μM A. fumigatus cytochrome P450 reductase isoenzyme 1 (AfCPR1), 50 μM eburicol, 4% (wt/vol) 2-hydroxypropyl-β-cyclodextrin, 0.4 mg/ml isocitrate dehydrogenase, 25 mM trisodium isocitrate, 50 mM NaCl, 5 mM MgCl2, and 40 mM 3-(N-morpholino) propanesulfonic acid (MOPS; pH of ∼7.2). The mixtures were then incubated at 37°C for 10 min prior to initiation with 4 mM β-NADPHNa4, followed by shaking for 20 min at 37°C. Sterol metabolites were recovered by extraction with ethyl acetate followed by derivatization with 0.1 ml N,O-bis(trimethylsilyl)trifluoroacetamide: trimethylchlorosilane (99:1) and 0.3 ml anhydrous pyridine prior to analysis by gas chromatography-mass spectrometry.

[8] = system: Candida parapsilosis (ATCC 22019); assay: CLSI MIC; format: cell-based; settings: ATCC22019, 1 strain, MIC = 50% inhibition of fungal growth
[9] = system: A. fumigatus (ATCC 13073 [strain NIH 5233]); assay: In vivo extended prophylaxis (intranasal, days -7 to 0) in infected immunocompromised mice; settings: 0.0032 mg/ml (0.11 μg/mouse), compared to late intervention at the same dose
Experimental: The test agents, suspended in physiological saline, were administered intranasally (35 μl, approximately 17.5 μl each in each nostril) once daily on days 1, 2, and 3 postinfection. […] As the injection volume was fixed and the body weight changed every day, especially after infection, the accurate dose unit was the number of micrograms per mouse. However, as the average body weight after immunosuppression and just before infection was 20 g, we also calculated the estimated dose in milligrams per kilogram.

[10] = system: A. fumigatus (ATCC 13073 [strain NIH 5233]); assay: In vivo antifungal activity, late intervention (intranasal, days 1-3 postinfection), temporarily neutropenic mice; settings: for inhibition of GM in serum: 0.08 mg/ml (2.8 μg/mouse) intranasal once daily days 1-3; for inhibition of fungal load (CFU) in the lung vs vehicle: 0.08 mg/ml, 35 μl intranasal once daily days 1-3 postinfection
[11] = system: Cryptococcus gattii (clinical isolate); assay: EUCAST MIC (EDef 7.2); format: cell-based; settings: 1 strain
[12] = system: sterol composition of A. fumigatus (NCPF2010); assay: A. fumigatus sterol analysis (GC-MS); format: cell-based, Aspergillus fumigatus; settings: 2 h
[13] = system: A. fumigatus (ATCC 13073); assay: In vivo persistence of action: single intranasal prophylactic dose 16 h before inoculation; settings: PC1244 0.4 mg/ml, POS 0.8 mg/ml intranasal 16 h before inoculation; lungs 8 h after
23 pathogenic fungi = format: cell-based; settings: broad spectrum of pathogenic fungi
A. fumigatus CYP51B = A. fumigatus CYP51B (Aspergillus fumigatus, UniProt E9QY26); assay: CYP51 reconstitution assay (sterol 14α-demethylase inhibition)
Sequence of A. fumigatus CYP51B (E9QY26 whole entry): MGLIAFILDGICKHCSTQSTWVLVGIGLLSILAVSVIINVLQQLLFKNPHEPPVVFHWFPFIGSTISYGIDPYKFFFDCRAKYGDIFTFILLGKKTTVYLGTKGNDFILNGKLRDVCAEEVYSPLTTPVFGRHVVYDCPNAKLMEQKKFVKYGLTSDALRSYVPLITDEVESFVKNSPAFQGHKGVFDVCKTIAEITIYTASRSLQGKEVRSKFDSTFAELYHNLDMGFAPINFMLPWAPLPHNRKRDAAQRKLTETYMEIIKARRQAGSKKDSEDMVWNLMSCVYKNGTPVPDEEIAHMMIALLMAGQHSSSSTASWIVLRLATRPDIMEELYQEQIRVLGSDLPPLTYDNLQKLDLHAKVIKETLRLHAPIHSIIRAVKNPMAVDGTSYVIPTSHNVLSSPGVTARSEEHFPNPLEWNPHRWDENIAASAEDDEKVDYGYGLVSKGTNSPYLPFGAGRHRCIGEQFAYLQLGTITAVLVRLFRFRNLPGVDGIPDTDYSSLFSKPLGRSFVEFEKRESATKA
Experimental: as §2

[14] = in vivo
in vivo = settings: mouse
A. fumigatus ATCC 204305 = assay: EUCAST MIC, quality control strain; format: cell-based; settings: Aspergillus fumigatus, ATCC204305; quality control strain ATCC 204305
Description: The antifungal activity of PC1244 was further evaluated against 96 clinical isolates (obtained from Saint Louis Hospital, Paris, France [50 isolates], and the North West England Mycology Reference Centre, Manchester, UK [46 isolates]). […] .

[15] = NCPF2010, 24 h, read-out: IC50, inhibition of ergosterol production
[16] = ATCC8740, CLSI, 1 strain, read-out: MIC
[17] = ATCC1015, EUCAST, 1 strain, read-out: MIC

## C[C@@H](c1ncncc1F)[C@](O)(Cn1cncn1)c1ccc(F)cc1F [Voriconazole, voriconazole]
[1]
  MIC: 0.5 µg/mL (≈ 1.43 µM)
[2]; [15]
  IC50: 0.067 µg/mL and 190 nM
A. fumigatus AF72
  IC50: 0.025 µg/mL (≈ 0.0716 µM)
  IC90: 0.066 µg/mL (≈ 0.189 µM)
A. fumigatus AF293
  IC50: 0.25 µg/mL (≈ 0.716 µM)
  IC90: 0.74 µg/mL (≈ 2.12 µM)
A. fumigatus AF91
  IC50: 0.14 µg/mL (≈ 0.401 µM)
  IC90: 0.28 µg/mL (≈ 0.802 µM)
A. fumigatus AF294
  IC50: 83 ng/mL (≈ 0.238 µM)
  IC90: 0.27 µg/mL (≈ 0.773 µM)
[3]; ATCC8740
  MIC: 0.5 µg/mL (≈ 1.43 µM)
A. fumigatus isolates
  range of MFCs for inhibition of 90% of isolates tested (MFC90): 0.5 to 4 µg/mL
[4]; ATCC36583
  MIC: 8.13 µg/mL (≈ 23.3 µM)
[5]
  MIC: 0.25 µg/mL (≈ 0.716 µM)
[6]
  MIC: 10 µg/mL (≈ 28.6 µM)
[7]; ATCC1015
  MIC: 1 µg/mL (≈ 2.86 µM)

## Cc1cc(N2CCN(c3ccc(C(=O)N[C@H]4CCCC[C@@H]4O)cc3)CC2)ccc1OC[C@@H]1CO[C@@](Cn2cncn2)(c2ccc(F)cc2F)C1 [PC1244, 4-(4-(4-(((3R,5R)-5-((1H-1,2,4-triazol-1-yl)methyl)-5-(2,4-difluorophenyl)tetrahydrofuran-3-yl)methoxy)-3-methylphenyl)piperazin-1-yl)-N-((1S,2S)-2-hydroxycyclohexyl)benzamide]
A. fumigatus CYP51A
  IC50: 270 nM
  Ki: < 1 nM
[1]; strain ATCC 13073, read-out: MIC
  MIC: 0.063 µg/mL (≈ 0.0917 µM)
[2]
  fold more potent than POS at inhibiting ergosterol production: 2.2 fold
  fold more potent than VRC at inhibiting ergosterol production: 12 fold
[2]; [15]
  IC50: 5.5 ng/mL
[2]; NCPF2010, read-out: 50% inhibitory concentration, ergosterol synthesis
  IC50: 8 nM
[8]
  MIC: 0.25 µg/mL (≈ 0.364 µM)
[9]
  effect on fungal load and biomarkers: high levels of inhibitory effects
A. fumigatus AF72
  IC50: 0.0024 µg/mL (≈ 0.00349 µM)
  IC90: 0.026 µg/mL (≈ 0.0379 µM)
A. fumigatus AF293
  IC50: 0.0026 µg/mL (≈ 0.00379 µM)
  IC90: 0.012 µg/mL (≈ 0.0175 µM)
A. fumigatus AF91
  IC50: 0.0037 µg/mL (≈ 0.00539 µM)
  IC90: 0.024 µg/mL (≈ 0.0349 µM)
A. fumigatus AF294
  IC50: 2.1 ng/mL (≈ 0.00306 µM)
  IC90: 0.0041 µg/mL (≈ 0.00597 µM)
[10]
  inhibition of GM in serum: 82%
  inhibition of fungal load (CFU) in the lung vs vehicle: 97%
[10]; infection-dependent increase
  CXCL1 level in BALF: reduced
  interleukin-6 (IL-6) level in serum: reduced
  tumor necrosis factor alpha (TNF-α) level in serum: reduced
[10]; mouse, in vivo
  ID50 (GM in BALF) fold lower than that of POS: 6.7 fold
[10]; pilot study
  A. fumigatus PCR products in lung tissue: inhibited the accumulation of PCR products
[11]
  MIC: 0.5 µg/mL (≈ 0.728 µM)
[12]; compound at 0.0001 μg/ml
  Sterol composition: Eburicol: 2.5 ± 1.1%
  Sterol composition: Ergost-5,7-dienol: 4.6 ± 1.8%
  Sterol composition: Ergosterol: 91.3 ± 0.1%
  Sterol composition: Lanosterol: 1.7 ± 0.7%
[12]; compound at 0.001 μg/ml
  Sterol composition: Eburicol: 3.4 ± 1.2%
  Sterol composition: Ergost-5,7-dienol: 4.6 ± 0.8%
  Sterol composition: Ergosterol: 89.2 ± 0.2%
  Sterol composition: Lanosterol: 2.8 ± 0.6%
[12]; compound at 0.01 μg/ml
  Sterol composition: Eburicol: 14.7 ± 1.5%
  Sterol composition: Ergost-5,7-dienol: 0%
  Sterol composition: Ergosterol: 76.8 ± 2.6%
  Sterol composition: Lanosterol: 8.5 ± 1.1%
[12]; compound at 0.1 μg/ml
  Sterol composition: Eburicol: 26.7 ± 0.8%
  Sterol composition: Ergost-5,7-dienol: 0%
  Sterol composition: Ergosterol: 61.0 ± 1.6%
  Sterol composition: Lanosterol: 12.3 ± 0.8%
[12]; compound at 1 μg/ml
  Sterol composition: Eburicol: 28.2 ± 1.3%
  Sterol composition: Ergost-5,7-dienol: 0%
  Sterol composition: Ergosterol: 58.7 ± 2.2%
  Sterol composition: Lanosterol: 13.1 ± 0.9%
[13]
  GM levels in the lung: significant inhibition
  number of CFU in the lung: significant inhibition
[3]; [16]
  MIC: 0.063 µg/mL (≈ 0.0917 µM)
23 pathogenic fungi
  MIC Range: <7.8 to 2000 ng/mL
A. fumigatus CYP51B
  IC50: 230 nM
  Ki: < 1 nM
[5]; CLSI, 1 strain, read-out: MIC
  MIC: 0.13 µg/mL (≈ 0.189 µM)
[14]
  oral availability: much less oral availability than posaconazole
In vivo
  concentration at 2 h: 111 to 303 ng/mL
  concentration at 8 h: 249 to 339 ng/mL
  concentration at 24 h: 41.5 to 50.7 ng/mL
[7]; [17]
  MIC: 0.5 µg/mL (≈ 0.728 µM)

## CC[C@@H]([C@H](C)O)n1ncn(-c2ccc(N3CCN(c4ccc(OC[C@@H]5CO[C@@](Cn6cncn6)(c6ccc(F)cc6F)C5)cc4)CC3)cc2)c1=O [Posaconazole, posaconazole]
A. fumigatus CYP51A
  Ki: < 1 nM
[2]; [15]
  IC50: 0.012 µg/mL and 17 nM
[8]
  MIC: 0.25 µg/mL (≈ 0.357 µM)
A. fumigatus AF72
  IC50: 0.042 µg/mL (≈ 0.0599 µM)
  IC90: 0.3 µg/mL (≈ 0.428 µM)
A. fumigatus AF293
  IC50: 0.01 µg/mL (≈ 0.0143 µM)
  IC90: 0.028 µg/mL (≈ 0.04 µM)
A. fumigatus AF91
  IC50: 0.038 µg/mL (≈ 0.0542 µM)
  IC90: 0.049 µg/mL (≈ 0.0699 µM)
A. fumigatus AF294
  IC50: 5.6 ng/mL (≈ 0.00799 µM)
  IC90: 0.011 µg/mL (≈ 0.0157 µM)
[10]
  inhibition of GM in serum: −11%
  inhibition of fungal load (CFU) in the lung vs vehicle: 39%
[10]; mouse, in vivo
  log10 ID fold higher than that of PC1244: 143 fold
[11]
  MIC: 0.5 µg/mL (≈ 0.713 µM)
[12]; compound at 0.0001 μg/ml
  Sterol composition: Eburicol: 2.2 ± 1.2%
  Sterol composition: Ergost-5,7-dienol: 3.3 ± 1.9%
  Sterol composition: Ergosterol: 94.5 ± 0.1%
  Sterol composition: Lanosterol: 0%
[12]; compound at 0.001 μg/ml
  Sterol composition: Eburicol: 5.9 ± 0.5%
  Sterol composition: Ergost-5,7-dienol: 3.9 ± 0.6%
  Sterol composition: Ergosterol: 87.2 ± 0.7%
  Sterol composition: Lanosterol: 3.0 ± 0.9%
[12]; compound at 0.01 μg/ml
  Sterol composition: Eburicol: 18.3 ± 1.1%
  Sterol composition: Ergost-5,7-dienol: 0%
  Sterol composition: Ergosterol: 74.7 ± 0.8%
  Sterol composition: Lanosterol: 7.0 ± 0.3%
[12]; compound at 0.1 μg/ml
  Sterol composition: Eburicol: 23.4 ± 0.8%
  Sterol composition: Ergost-5,7-dienol: 0%
  Sterol composition: Ergosterol: 67.8 ± 0.3%
  Sterol composition: Lanosterol: 8.8 ± 0.5%
[12]; compound at 1 μg/ml
  Sterol composition: Eburicol: 23.8 ± 1.3%
  Sterol composition: Ergost-5,7-dienol: 0%
  Sterol composition: Ergosterol: 67.4 ± 1.5%
  Sterol composition: Lanosterol: 8.8 ± 0.4%
[13]
  number of CFU in the lung: did not
[3]; [16]
  MIC: 0.063 µg/mL (≈ 0.0899 µM)
A. fumigatus isolates
  range of MFCs for inhibition of 90% of isolates tested (MFC90): 0.06 to 2 µg/mL
A. fumigatus ATCC 204305
  MIC: 0.25 µg/mL (≈ 0.357 µM)
[4]; ATCC36583, CLSI, 2 strains, MIC = 50% inhibition, two individual values for PC1244, read-out: MIC
  MIC: 0.5 µg/mL (≈ 0.713 µM)
A. fumigatus CYP51B
  Ki: < 1 nM
[6]; CLSI, 2 azole (fluconazole and voriconazole) resistant strains, MIC = 50% inhibition, two individual values for PC1244, read-out: MIC
  MIC: 8.13 µg/mL (≈ 11.6 µM)
In vivo
  concentration at 24 h: 15.6 to 125 ng/mL
[7]; [17]
  MIC: 0.2 µg/mL (≈ 0.285 µM)
